From patent publication US20230131899A1, “INHIBITORS OF MICROBIALLY INDUCED AMYLOID” (Axial Therapeutics, Inc., priority 2020, published 2023)
Like-named read-outs stand apart in the source and are kept apart here.

Tests used:
human α-synuclein = target: T1, human α-synuclein (Homo sapiens, UniProt P37840); assay: Cell-free Thioflavin T assay of α-synuclein aggregation (αSyn ThT Assay); assay type: biochemical; conditions: αSyn 50 μM
T1 construct: the full-length gene for untagged human α-synuclein was inserted; made in house; host or cells: E. coli BL21(DE3), plasmid derived from pT7 or pET11a
Method in brief: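 Untagged full-length human α-synuclein from E. coli, 50 μM, with 20-40 μM ThT, 1% DMSO, compound at 20-100 μM and a glass bead, 37° C. with shaking. Fluorescence (ex 438/em 495 nm) read hourly to 73 h. Compound-only background subtracted and values normalised to vehicle at 36-72 h or final timepoint, giving % inhibition.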

number of fecal pellets = assay: Fecal pellet output in MC4100 mice treated with compound vs control chow (FIG. 5); assay type: in vivo, mouse; conditions: 12-14 weeks of age; compared to MC4100-control chow group; statistical difference was not reached
fecal water content = assay: Fecal water content in MC4100 mice treated with compound vs control chow (FIG. 6); assay type: in vivo, mouse; conditions: 12-14 weeks of age; vs MC4100-control chow group
[1] = system: time to descend from a pole; assay: Pole descent test in MC4100 mice treated with compound vs control chow (FIG. 7); assay type: in vivo, mouse; conditions: 18-20 weeks of age; vs MC-4100 control chow group
[2] = system: csgA expression in E. coli MC4100; assay: csgA expression relative to housekeeping genes recA and cysG in E. coli MC4100 monocolonized mice (FIGS. 8A-D); assay type: in vivo
[3] = system: CsgA expression in E. coli MC4100; assay: Monocolonized Mouse Model: csgA expression in fecal pellets by qRT-PCR; conditions: 30 mg/kg, day five of treatment, relative to mice treated with vehicle alone (FIGS. 4A-B)
[4] = class symbol, compounds 100 μM, read-out: αSyn ThT Assay % inhibition, activity range
[5] = mean percent inhibition relative to DMSO control, compounds 100 μM, read-out: αSyn ThT Assay % inhibition

Row | SMILES | inhibition at 100 µM (human α-synuclein; [4]) [%] | inhibition at 100 µM (human α-synuclein; [5]) [%] | further results
1 | O=C(O)[C@@H]1CN(Cc2ccccc2)c2c(-c3cccc(C(F)(F)F)c3)c(Cc3cccc4ccccc34)c(Cl)c(=O)n21 (single isomer, unassigned) [Compound 004a] | 31 to 60 | 42 | number of fecal pellets a mouse produced at 15 min interval (number of fecal pellets): overall increase in number of fecal pellets; fecal water content (fecal water content): restored a constipation phenotype; time to descend from a pole into a home cage [1]: trend towards improvement of the phenotype; csgA expression relative to housekeeping genes recA and cysG ([2]; 12-14 weeks of age): reduction of csgA expression; csgA expression relative to housekeeping genes recA and cysG ([2]; 14-16 weeks of age): repeated and observed again
2 | CN1CC(C(=O)O)n2c(c(-c3cccc(C(F)(F)F)c3)c(Cc3cccc4ccccc34)c(NC3CCCC3)c2=O)S1(=O)=O (stereo not shown) [Compound 070, 7-(cyclopentylamino)-2-methyl-8-(naphthalen-1-ylmethyl)-6-oxo-9-(3-(trifluoromethyl)phenyl)-3,4-dihydro-2H,6H-pyrido[1,2-e][1,2,5]thiadiazine-4-carboxylic acid 1,1-dioxide] |  |  | inhibition at 100 µM (human α-synuclein; mean % inhibition of αSyn aggregation relative to DMSO control, compounds at 100 μM, read-out: αSyn ThT Assay % Inhibition): 53%; inhibition at 100 µM (human α-synuclein; compounds at 100 μM, class symbol, read-out: αSyn ThT Assay % Inhibition (activity range)): 31 to 60%; csgA expression in E. coli MC4100 monocolonized mice [3]: reduction of csgA expression
3 | O=C(O)C1CN(CCCCCCCN2CC(C(=O)O)n3c2c(-c2cccc(C(F)(F)F)c2)c(Cc2cccc4ccccc24)c(Cl)c3=O)c2c(-c3cccc(C(F)(F)F)c3)c(Cc3cccc4ccccc34)c(Cl)c(=O)n21 (stereo not shown) [Compound 188, 1,1′-(heptane-1,7-diyl)bis(6-chloro-7-(naphthalen-1-ylmethyl)-5-oxo-8-(3-(trifluoromethyl)phenyl)-1,2,3,5-tetrahydroimidazo[1,2-a]pyridine-3-carboxylic acid)] | > 60 | 62 | 
4 | COc1ccc(CN2CC(C(=O)O)n3c2c(-c2cccc(C(F)(F)F)c2)c(Cc2cccc4ccccc24)c(Cl)c3=O)cc1 (stereo not shown) [Compound 192, 6-chloro-1-(4-methoxybenzyl)-7-(naphthalen-1-ylmethyl)-5-oxo-8-(3-(trifluoromethyl)phenyl)-1,2,3,5-tetrahydroimidazo[1,2-a]pyridine-3-carboxylic acid] | 31 to 60 | 59 | 
5 | O=C(O)C1CN(CCCCCCN2CC(C(=O)O)n3c2c(-c2cccc(C(F)(F)F)c2)c(Cc2cccc4ccccc24)c(Cl)c3=O)c2c(-c3cccc(C(F)(F)F)c3)c(Cc3cccc4ccccc34)c(Cl)c(=O)n21 (stereo not shown) [Compound 193, 1,1′-(hexane-1,6-diyl)bis(6-chloro-7-(naphthalen-1-ylmethyl)-5-oxo-8-(3-(trifluoromethyl)phenyl)-1,2,3,5-tetrahydroimidazo[1,2-a]pyridine-3-carboxylic acid)] | > 60 | 69 | 
6 | O=C(O)C1CN(Cc2ccccc2)c2c(-c3cccc(C(F)(F)F)c3)c(Cc3cccc4ccccc34)c(F)c(=O)n21 (stereo not shown) [Compound 194, 1-benzyl-6-fluoro-7-(naphthalen-1-ylmethyl)-5-oxo-8-(3-(trifluoromethyl)phenyl)-1,2,3,5-tetrahydroimidazo[1,2-a]pyridine-3-carboxylic acid] | 31 to 60 | 57 | 
7 | O=C(O)C1CN(Cc2cccc(O)c2)c2c(-c3cccc(C(F)(F)F)c3)c(Cc3cccc4ccccc34)c(Cl)c(=O)n21 (stereo not shown) [Compound 196, 6-chloro-1-(3-hydroxybenzyl)-7-(naphthalen-1-ylmethyl)-5-oxo-8-(3-(trifluoromethyl)phenyl)-1,2,3,5-tetrahydroimidazo[1,2-a]pyridine-3-carboxylic acid] | > 60 | 61 | 
8 | O=C(O)C1CN(CCCO)c2c(-c3cccc(C(F)(F)F)c3)c(Cc3cccc4ccccc34)c(Cl)c(=O)n21 (stereo not shown) [Compound 197, 6-chloro-1-(3-hydroxypropyl)-7-(naphthalen-1-ylmethyl)-5-oxo-8-(3-(trifluoromethyl)phenyl)-1,2,3,5-tetrahydroimidazo[1,2-a]pyridine-3-carboxylic acid] | 31 to 60 | 39 | 
9 | O=C(O)C1CN(Cc2ccccc2)c2c(-c3cccc(Br)c3)c(Cc3cccc4ccccc34)c(Cl)c(=O)n21 (stereo not shown) [Compound 198, 1-benzyl-8-(3-bromophenyl)-6-chloro-7-(naphthalen-1-ylmethyl)-5-oxo-1,2,3,5-tetrahydroimidazo[1,2-a]pyridine-3-carboxylic acid] | > 60 | 75 | 
10 | O=C(O)C1CN(CCCCCO)c2c(-c3cccc(C(F)(F)F)c3)c(Cc3cccc4ccccc34)c(Cl)c(=O)n21 (stereo not shown) [Compound 199, 6-chloro-1-(5-hydroxypentyl)-7-(naphthalen-1-ylmethyl)-5-oxo-8-(3-(trifluoromethyl)phenyl)-1,2,3,5-tetrahydroimidazo[1,2-a]pyridine-3-carboxylic acid] | 11 to 30 | 29 | 
11 | O=C(O)C1CN(Cc2cccc3ccccc23)c2c(-c3cccc(C(F)(F)F)c3)c(Cc3cccc4ccccc34)c(Cl)c(=O)n21 (stereo not shown) [Compound 200, 6-chloro-1,7-bis(naphthalen-1-ylmethyl)-5-oxo-8-(3-(trifluoromethyl)phenyl)-1,2,3,5-tetrahydroimidazo[1,2-a]pyridine-3-carboxylic acid] | > 60 | 84 | 
12 | O=C(O)C1CN(Cc2ccc(-c3ccccc3)cc2)c2c(-c3cccc(C(F)(F)F)c3)c(Cc3cccc4ccccc34)c(Cl)c(=O)n21 (stereo not shown) [Compound 202, 1-([1,1′-biphenyl]-4-ylmethyl)-6-chloro-7-(naphthalen-1-ylmethyl)-5-oxo-8-(3-(trifluoromethyl)phenyl)-1,2,3,5-tetrahydroimidazo[1,2-a]pyridine-3-carboxylic acid] | 31 to 60 | 54 | 
13 | O=C(O)C1CN(CCC2CCCCC2)c2c(-c3cccc(C(F)(F)F)c3)c(Cc3cccc4ccccc34)c(Cl)c(=O)n21 (stereo not shown) [Compound 207, 6-chloro-1-(2-cyclohexylethyl)-7-(naphthalen-1-ylmethyl)-5-oxo-8-(3-(trifluoromethyl)phenyl)-1,2,3,5-tetrahydroimidazo[1,2-a]pyridine-3-carboxylic acid] | > 60 | 71 | 
14 | CC(C)(C)c1ccc(Cc2c(-c3cccc(C(F)(F)F)c3)c3n(c(=O)c2Cl)C(C(=O)O)CN3Cc2ccccc2)cc1 (stereo not shown) [Compound 216, 1-benzyl-7-(4-(tert-butyl)benzyl)-6-chloro-5-oxo-8-(3-(trifluoromethyl)phenyl)-1,2,3,5-tetrahydroimidazo[1,2-a]pyridine-3-carboxylic acid] | 31 to 60 | 46 | 
